Experimental data taken from publication PMC9057082 (RSC Advances, 2020).

Experiment: Total antioxidant capacity
Assay type: biochemical
Conditions: residual hydrogen peroxide measured at 505 nm; mean ± standard deviation

SMILES: O=C1O[C@H]([C@@H](O)CO)C(O)=C1O [Ascorbic acid]
- Total anti-oxidant activity IC50: 174.8 ± 12.3 µg/mL
